In brackets after ≈: the same amount, converted by molar mass.
What was measured:
Assay type in all cases: functional
Staphylococcus aureus [1] = test: Antimicrobial activity against Staphylococcus aureus ATCC 25923 after 18 hrs by broth microdilution method; conditions: ATCC 25923, 18 h
Staphylococcus aureus [2] = test: Antimicrobial activity against Staphylococcus aureus ATCC 6538 after 18 hrs by broth microdilution method; conditions: ATCC 6538, 18 h
[3] = system: Staphylococcus epidermidis; test: Antimicrobial activity against Staphylococcus epidermidis ATCC 12228 after 18 hrs by broth microdilution method; conditions: ATCC 12228, 18 h
Bacillus subtilis [4] = test: Antimicrobial activity against Bacillus subtilis ATCC […] after 18 hrs by broth microdilution method
Bacillus cereus [5] = test: Antimicrobial activity against Bacillus cereus ATCC 10876 after 18 hrs by broth microdilution method; conditions: ATCC 10876, 18 h
Micrococcus luteus [6] = test: Antimicrobial activity against Micrococcus luteus ATCC 10240 after 18 hrs by broth microdilution method; conditions: ATCC 10240, 18 h
Escherichia coli [7] = test: Antimicrobial activity against Escherichia coli ATCC 25922 after 18 hrs by broth microdilution method; conditions: ATCC 25922, 18 h
Klebsiella pneumoniae [8] = test: Antimicrobial activity against Klebsiella pneumoniae ATCC 13883 after 18 hrs by broth microdilution method; conditions: ATCC 13883, 18 h
Proteus mirabilis [9] = test: Antimicrobial activity against Proteus mirabilis ATCC 12453 after 18 hrs by broth microdilution method; conditions: ATCC 12453, 18 h
Staphylococcus aureus [10] = test: Antimicrobial activity against Staphylococcus aureus ATCC 25923 assessed as >99.9 % reduction in CFU after 18 hrs by broth microdilution method; conditions: ATCC 25923, 18 h
Staphylococcus aureus [11] = test: Antimicrobial activity against Staphylococcus aureus ATCC 6538 assessed as >99.9 % reduction in CFU after 18 hrs by broth microdilution method; conditions: ATCC 6538, 18 h
[12] = system: Staphylococcus epidermidis; test: Antimicrobial activity against Staphylococcus epidermidis ATCC 12228 assessed as >99.9 % reduction in CFU after 18 hrs by broth microdilution method; conditions: ATCC 12228, 18 h
Bacillus subtilis [13] = test: Antimicrobial activity against Bacillus subtilis ATCC […] assessed as >99.9 % reduction in CFU after 18 hrs by broth microdilution method
Bacillus cereus [14] = test: Antimicrobial activity against Bacillus cereus ATCC 10876 assessed as >99.9 % reduction in CFU after 18 hrs by broth microdilution method; conditions: ATCC 10876, 18 h
Micrococcus luteus [15] = test: Antimicrobial activity against Micrococcus luteus ATCC 10240 assessed as >99.9 % reduction in CFU after 18 hrs by broth microdilution method; conditions: ATCC 10240, 18 h
Escherichia coli [16] = test: Antimicrobial activity against Escherichia coli ATCC 25922 assessed as >99.9 % reduction in CFU after 18 hrs by broth microdilution method; conditions: ATCC 25922, 18 h
Klebsiella pneumoniae [17] = test: Antimicrobial activity against Klebsiella pneumoniae ATCC 13883 assessed as >99.9 % reduction in CFU after 18 hrs by broth microdilution method; conditions: ATCC 13883, 18 h
Proteus mirabilis [18] = test: Antimicrobial activity against Proteus mirabilis ATCC 12453 assessed as >99.9 % reduction in CFU after 18 hrs by broth microdilution method; conditions: ATCC 12453, 18 h

Row | SMILES | MIC (Staphylococcus aureus [1]) [µg/mL] | MIC (Staphylococcus aureus [2]) [µg/mL] | MIC [3] [µg/mL] | MIC (Bacillus subtilis [4]) [µg/mL] | MIC (Bacillus cereus [5]) [µg/mL] | MIC (Micrococcus luteus [6]) [µg/mL] | MIC (Escherichia coli [7]) [µg/mL] | MBC (Staphylococcus aureus [10]) [µg/mL] | MBC (Staphylococcus aureus [11]) [µg/mL] | MBC [12] [µg/mL] | MBC (Bacillus subtilis [13]) [µg/mL] | MBC (Bacillus cereus [14]) [µg/mL] | MBC (Micrococcus luteus [15]) [µg/mL] | MBC (Escherichia coli [16]) [µg/mL] | other results
1 | S=c1n(CN2CCCC2)nc(-c2cccc(Cl)c2)n1-c1ccccc1I | 500 (≈ 1010 µM) | 500 (≈ 1010 µM) | 500 (≈ 1010 µM) | 250 (≈ 503 µM) | 500 (≈ 1010 µM) | 500 (≈ 1010 µM) | > 1000 | > 1000 | > 1000 | > 1000 | > 1000 | > 1000 | > 1000 | > 1000 | MIC (Klebsiella pneumoniae [8]): > 1000 µg/mL; MIC (Proteus mirabilis [9]; read-out: MIC): > 1000 µg/mL; MBC (Klebsiella pneumoniae [17]; read-out: MBC): > 1000 µg/mL; MBC (Proteus mirabilis [18]; read-out: MBC): > 1000 µg/mL
2 | Fc1ccc(F)c(-n2c(-c3cccc(Cl)c3)n[nH]c2=S)c1 | > 1000 | > 1000 | 250 (≈ 772 µM) | 1000 (≈ 3090 µM) | 1000 (≈ 3090 µM) | 1000 (≈ 3090 µM) |  |  |  |  |  |  |  |  | 
3 | S=c1[nH]nc(-c2cccc(Cl)c2)n1-c1ccc(I)cc1 | 250 (≈ 604 µM) | 500 (≈ 1210 µM) | 250 (≈ 604 µM) | 31.2 (≈ 75.5 µM) | 250 (≈ 604 µM) | > 1000 |  |  |  |  |  |  |  |  | 
4 | O=C(NNC(=S)Nc1ccc(Br)cc1)c1cccc(Cl)c1 | 15.6 (≈ 40.6 µM) | 15.6 (≈ 40.6 µM) | 15.6 (≈ 40.6 µM) | 31.2 (≈ 81.2 µM) | 15.6 (≈ 40.6 µM) | 15.6 (≈ 40.6 µM) |  |  |  |  |  |  |  |  | 
5 | Cc1ccc(-n2c(-c3cccc(Cl)c3)nn(CN3CCCC3)c2=S)cc1 | 31.2 (≈ 81.2 µM) | 62.5 (≈ 162 µM) | 125 (≈ 325 µM) | 31.2 (≈ 81.2 µM) | 125 (≈ 325 µM) | 62.5 (≈ 162 µM) | > 1000 | > 1000 | > 1000 | > 1000 | 1000 (≈ 2600 µM) | > 1000 | > 1000 | > 1000 | MIC (Klebsiella pneumoniae [8]): > 1000 µg/mL; MIC (Proteus mirabilis [9]; read-out: MIC): > 1000 µg/mL; MBC (Klebsiella pneumoniae [17]; read-out: MBC): > 1000 µg/mL; MBC (Proteus mirabilis [18]; read-out: MBC): > 1000 µg/mL
6 | Fc1cccc(F)c1-n1c(-c2cccc(Cl)c2)nn(CN2CCCC2)c1=S | 125 (≈ 307 µM) | 125 (≈ 307 µM) | 125 (≈ 307 µM) | 125 (≈ 307 µM) | 125 (≈ 307 µM) |  | 500 (≈ 1230 µM) | 500 (≈ 1230 µM) | 500 (≈ 1230 µM) | 1000 (≈ 2460 µM) | 500 (≈ 1230 µM) | 1000 (≈ 2460 µM) | 1000 (≈ 2460 µM) | 1000 (≈ 2460 µM) | MBC (Micrococcus luteus [6]): 1000 µg/mL (≈ 2460 µM); MBC (Klebsiella pneumoniae [8]): 1000 µg/mL (≈ 2460 µM); MIC (Proteus mirabilis [9]): 1000 µg/mL (≈ 2460 µM); MBC (Klebsiella pneumoniae [17]): 1000 µg/mL (≈ 2460 µM); MBC (Proteus mirabilis [18]): 1000 µg/mL (≈ 2460 µM)
7 | COc1ccc(-n2c(-c3cccc(Cl)c3)n[nH]c2=S)cc1 | > 1000 | > 1000 | > 1000 | > 1000 | > 1000 | > 1000 |  |  |  |  |  |  |  |  | 
8 | O=C(NNC(=S)Nc1ccc(Cl)cc1)c1cccc(Cl)c1 | 31.2 (≈ 91.8 µM) | 31.2 (≈ 91.8 µM) | 31.2 (≈ 91.8 µM) | 31.2 (≈ 91.8 µM) | 62.5 (≈ 184 µM) | 31.2 (≈ 91.8 µM) |  |  |  |  |  |  |  |  | 
9 | S=c1[nH]nc(-c2cccc(Cl)c2)n1-c1ccc(Cl)cc1 | 125 (≈ 388 µM) | 125 (≈ 388 µM) | 125 (≈ 388 µM) | 125 (≈ 388 µM) | 125 (≈ 388 µM) | 125 (≈ 388 µM) |  |  |  |  |  |  |  |  | 
10 | O=C(NNC(=S)Nc1ccccc1Br)c1cccc(Cl)c1 | 62.5 (≈ 162 µM) | 31.2 (≈ 81.2 µM) | 125 (≈ 325 µM) | 125 (≈ 325 µM) | 62.5 (≈ 162 µM) | 62.5 (≈ 162 µM) |  |  |  |  |  |  |  |  | 
11 | Cc1ccc(NC(=S)NNC(=O)c2cccc(Cl)c2)cc1 | 62.5 (≈ 195 µM) | 62.5 (≈ 195 µM) | > 1000 | > 1000 | > 1000 | > 1000 |  |  |  |  |  |  |  |  | 
12 | O=C(NNC(=S)Nc1ccc(I)cc1)c1cccc(Cl)c1 | 31.2 (≈ 72.4 µM) | 31.2 (≈ 72.4 µM) | 31.2 (≈ 72.4 µM) | 31.2 (≈ 72.4 µM) | 15.6 (≈ 36.2 µM) | 31.2 (≈ 72.4 µM) |  |  |  |  |  |  |  |  | 
13 | COc1ccc(NC(=S)NNC(=O)c2cccc(Cl)c2)cc1 | 62.5 (≈ 186 µM) | 125 (≈ 372 µM) | 125 (≈ 372 µM) | 125 (≈ 372 µM) | 125 (≈ 372 µM) | 62.5 (≈ 186 µM) |  |  |  |  |  |  |  |  | 
14 | Fc1ccc(F)c(-n2c(-c3cccc(Cl)c3)nn(CN3CCCC3)c2=S)c1 | 125 (≈ 307 µM) | 125 (≈ 307 µM) | 125 (≈ 307 µM) | 125 (≈ 307 µM) | 125 (≈ 307 µM) | 125 (≈ 307 µM) | 500 (≈ 1230 µM) | 500 (≈ 1230 µM) | 500 (≈ 1230 µM) | 1000 (≈ 2460 µM) | 1000 (≈ 2460 µM) | > 1000 | 1000 (≈ 2460 µM) | > 1000 | MIC (Klebsiella pneumoniae [8]): 250 µg/mL (≈ 614 µM); MIC (Proteus mirabilis [9]): 500 µg/mL (≈ 1230 µM); MBC (Klebsiella pneumoniae [17]; read-out: MBC): > 1000 µg/mL; MBC (Proteus mirabilis [18]): > 1000 µg/mL
15 | COc1ccc(-n2c(-c3cccc(Cl)c3)nn(CN3CCCC3)c2=S)cc1 | 125 (≈ 312 µM) | 250 (≈ 624 µM) | 250 (≈ 624 µM) | 250 (≈ 624 µM) | 125 (≈ 312 µM) | 125 (≈ 312 µM) | 250 (≈ 624 µM) | 500 (≈ 1250 µM) | 500 (≈ 1250 µM) | 1000 (≈ 2490 µM) | 500 (≈ 1250 µM) | > 1000 | 1000 (≈ 2490 µM) | 500 (≈ 1250 µM) | MIC (Klebsiella pneumoniae [8]): 250 µg/mL (≈ 624 µM); MIC (Proteus mirabilis [9]; read-out: MIC): 500 µg/mL (≈ 1250 µM); MBC (Klebsiella pneumoniae [17]; read-out: MBC): 500 µg/mL (≈ 1250 µM); MBC (Proteus mirabilis [18]; read-out: MBC): > 1000 µg/mL

From ChEMBL document CHEMBL1649393, “Synthesis and antimicrobial activity of thiosemicarbazides, s-triazoles and their Mannich bases bearing 3-chlorophenyl moiety” (2011)
